According to patent US20050221501A1, “Dissolution method” (priority 2003, published 2005):

Legend:
[1] = aqueous dissolution medium containing 4% sodium lauryl sulfate, in 60 minutes; cited from earlier work
[2] = pH-dependent aqueous solubility of the Agent; assay type: physicochemical; conditions: free-base form
[3] = Biopharmaceutics Classification System (BCS) classification; assay type: physicochemical
Source text: Under the BCS system Class II compounds are sparingly soluble with high permeability.

| solubility ([2]; above pH 7) | ml of aqueous solvent required to dissolve 1 g of Agent ([2]; pH 6) [mL] | BCS class [3] | SMILES | % dissolution [1] |
| --- | --- | --- | --- | --- |
| – | – | – | COC1=CC(=O)C[C@@H](C)[C@]12Oc1c(Cl)c(OC)cc(OC)c1C2=O [Griseofluvin] | at least 75% |
| very low solubility | ≥ 10000 | Class II | COc1cc2ncnc(Nc3ccc(F)c(Cl)c3)c2cc1OCCCN1CCOCC1 [Agent, 4-(3′-chloro-4′-fluoroanilino)-7-methoxy-6-(3-morpholinopropoxy)quinazoline] | – |
